Experimental data: patent publication US10934277B2, “Enantiomerically purified GPER agonist for use in treating disease states and conditions” (Linnaeus Therapeutics, Inc., priority 2018, dated 2021)
Values after ≈ are worked out from the molar mass of the structure shown.

Experiments:
[1] = target: T1, AR (Homo sapiens, UniProt P10275); assay: Off target selectivity assay, Nuclear Hormone Receptor AR
T1 sequence (P10275 1-920): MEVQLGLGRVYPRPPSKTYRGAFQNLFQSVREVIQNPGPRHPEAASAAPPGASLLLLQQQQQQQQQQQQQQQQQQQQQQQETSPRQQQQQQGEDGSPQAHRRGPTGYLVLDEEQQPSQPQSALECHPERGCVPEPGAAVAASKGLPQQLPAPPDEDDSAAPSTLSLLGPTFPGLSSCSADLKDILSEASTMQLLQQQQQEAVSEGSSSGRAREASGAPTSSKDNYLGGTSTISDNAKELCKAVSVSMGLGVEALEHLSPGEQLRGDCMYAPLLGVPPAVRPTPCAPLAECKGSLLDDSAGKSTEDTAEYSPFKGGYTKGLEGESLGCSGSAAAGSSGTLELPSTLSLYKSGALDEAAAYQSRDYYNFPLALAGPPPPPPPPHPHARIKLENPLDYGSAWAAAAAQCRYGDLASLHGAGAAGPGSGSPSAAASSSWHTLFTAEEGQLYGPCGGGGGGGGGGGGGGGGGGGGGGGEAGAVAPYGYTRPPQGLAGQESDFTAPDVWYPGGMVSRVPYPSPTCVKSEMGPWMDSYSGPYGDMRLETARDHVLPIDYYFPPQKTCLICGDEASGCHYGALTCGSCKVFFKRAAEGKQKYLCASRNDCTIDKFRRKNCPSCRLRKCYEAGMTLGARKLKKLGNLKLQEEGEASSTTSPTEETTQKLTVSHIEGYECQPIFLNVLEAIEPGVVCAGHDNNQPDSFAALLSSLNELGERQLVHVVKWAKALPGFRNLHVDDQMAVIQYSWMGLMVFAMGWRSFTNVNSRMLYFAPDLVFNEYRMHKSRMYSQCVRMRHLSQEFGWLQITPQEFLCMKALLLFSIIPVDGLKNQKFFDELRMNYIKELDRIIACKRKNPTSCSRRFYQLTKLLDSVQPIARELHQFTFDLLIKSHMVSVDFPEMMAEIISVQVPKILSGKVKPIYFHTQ

[2] = Solubility measurement in pH buffers; format: physicochemical
[3] = Kinetic solubility measurement in bio-relevant media; format: physicochemical; conditions: FeSSIF
[4] = test system: CYP3A4; assay: Cytochrome P450 induction in hepatocytes, CYP3A4; format: in vitro ADME; conditions: hepatocytes from three different human cell lines; 1 μM, 10 μM and 100 μM
[5] = target: OPRM1 (Homo sapiens, UniProt P35372); assay: Off target selectivity assay, OPRM1; format: cell-based; conditions: dose response, concentrations up to 10 μM; read-out: IC50 or EC50 on OPRM1
Experimental: Final assay vehicle concentration was 1%.
For Gi coupled GPCRs, EC80 forskolin was included.
DMSO concentration for all readouts is ≤0.2%.
Probenicid was prepared fresh. Cells were loaded with dye prior to testing.

Sequence of OPRM1 (P35372 whole entry): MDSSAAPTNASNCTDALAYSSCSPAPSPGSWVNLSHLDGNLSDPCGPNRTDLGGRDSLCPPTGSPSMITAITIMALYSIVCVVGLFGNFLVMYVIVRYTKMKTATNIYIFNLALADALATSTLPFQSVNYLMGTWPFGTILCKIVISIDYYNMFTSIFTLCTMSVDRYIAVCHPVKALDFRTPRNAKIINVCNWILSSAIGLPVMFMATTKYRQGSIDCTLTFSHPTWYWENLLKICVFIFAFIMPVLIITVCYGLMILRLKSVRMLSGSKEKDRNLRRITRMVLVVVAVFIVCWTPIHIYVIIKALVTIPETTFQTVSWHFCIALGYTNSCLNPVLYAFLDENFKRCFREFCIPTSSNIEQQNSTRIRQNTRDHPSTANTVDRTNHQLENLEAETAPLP

SMILES | IC50 [1] | solubility at 24 h ([2]; pH 2, aqueous buffer, thermodynamic from solid, all pH buffers 2.0 to 8.0, 37° C., 24 hrs, read-out: solubility at pH 2.0-8.0) | form change in all the pH buffers ([2]; pH 2.0 to 8.0, after 24 hrs) | form change in the three bio-relevant media ([3]; SGF, FaSSIF, after 1, 2, 4 and 24 hrs) | solubility ([3]; pH 5, thermodynamic from solid, 37° C., read-out: highest solubility, observed in FeSSIF) | CYP3A4 induction [4] | IC50 [5]
CC(=O)c1ccc2c(c1)[C@H]1C=CC[C@H]1[C@@H](c1cc3c(cc1Br)OCO3)N2 [RSS G-1, 1-((3aR,4S,9bS)-4-(6-bromobenzo[d][1,3]dioxol-5-yl)-3a,4,5,9b-tetrahydro-3H-cyclopenta[c]quinolin-8-yl)ethan-1-one] | 4.76 µM | – | – | – | – | – | –
CC(=O)c1ccc2c(c1)[C@@H]1C=CC[C@@H]1[C@H](c1cc3c(cc1Br)OCO3)N2 (single isomer, unassigned) [SRR G-1] | – | < 0.72 µg/mL | No form change was observed | No form change was observed | ~37 µg/mL (≈ 89.7 µM) | induced at only 10 μM in 2 of the 3 cell lines | 6.68 µM
